Results as given in US20260078119A1, “DEGRADER COMPOUNDS AND USES THEREOF” (Bristol-Myers Squibb Company, priority 2024, published 2026).
Read-outs that look alike come from different tables or passages of the source.

Tests used:
[1] = molecular target: T1, FAK (Homo sapiens, UniProt Q05397); experiment: FAK-HiBiT Degradation Assay; format: cell-based; conditions: for DC50: read-out: FAK HiBiT EC50; for FAK HiBiT Ymin: lower limit of the four parameter fit (value A), Ymax derived using DMSO control, JHH-4-FAK-HiBiT cells, two hours
T1 construct: homozygous knock-in of a HiBiT tag (Promega Corporation, Madison, WI) to the C-terminus of the FAK gene in its natural genomic locus; endogenous in cells; host or cells: JHH-4-FAK-HiBiT clone d01 (CRISPR-Cas9 knock-in at the endogenous locus)
Method in brief: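 JHH-4 cells with homozygous CRISPR knock-in of C-terminal HiBiT on endogenous FAK, treated 2 h at 37 °C with compounds in 10-point 3-fold series from 1 μM. HiBiT lytic luminescence read; EC50 from four-parameter logistic fit, Ymax set by DMSO control, Ymin as lower fit limit.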

[2] = system: CAL-51 cells; experiment: CAL-51 Cell Proliferation Assay; format: cell-based; conditions: for EC50: 120 hours incubation, 10-point dose response, 4-fold dilutions starting at 10 μM, Cell-Titer-Glo, read-out: CAL-51 Prolif EC50; for CAL-51 Prolif Ymin: minimal percent of DMSO control observed in the concentrations tested (Ymin-obs), 120 hours
Method in brief: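 Cells seeded at 350/well in RPMI complete medium onto 10-point, 4-fold compound dilutions from 10 μM (0.1% DMSO), in duplicate, and grown 120 h at 37 °C. CellTiter-Glo luminescence, blank-subtracted and normalised to DMSO, was fitted with a four-parameter logistic to give EC50; Ymin-obs is the lowest observed percent of DMSO control.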

[3] = JHH-4-FAK-HiBiT clone d01 cells, two hours incubation, 10-point dose response, 3-fold dilution starting at 1 μM, Nano-Glo HiBiT luminescence

T1 sequence (Q05397 whole entry): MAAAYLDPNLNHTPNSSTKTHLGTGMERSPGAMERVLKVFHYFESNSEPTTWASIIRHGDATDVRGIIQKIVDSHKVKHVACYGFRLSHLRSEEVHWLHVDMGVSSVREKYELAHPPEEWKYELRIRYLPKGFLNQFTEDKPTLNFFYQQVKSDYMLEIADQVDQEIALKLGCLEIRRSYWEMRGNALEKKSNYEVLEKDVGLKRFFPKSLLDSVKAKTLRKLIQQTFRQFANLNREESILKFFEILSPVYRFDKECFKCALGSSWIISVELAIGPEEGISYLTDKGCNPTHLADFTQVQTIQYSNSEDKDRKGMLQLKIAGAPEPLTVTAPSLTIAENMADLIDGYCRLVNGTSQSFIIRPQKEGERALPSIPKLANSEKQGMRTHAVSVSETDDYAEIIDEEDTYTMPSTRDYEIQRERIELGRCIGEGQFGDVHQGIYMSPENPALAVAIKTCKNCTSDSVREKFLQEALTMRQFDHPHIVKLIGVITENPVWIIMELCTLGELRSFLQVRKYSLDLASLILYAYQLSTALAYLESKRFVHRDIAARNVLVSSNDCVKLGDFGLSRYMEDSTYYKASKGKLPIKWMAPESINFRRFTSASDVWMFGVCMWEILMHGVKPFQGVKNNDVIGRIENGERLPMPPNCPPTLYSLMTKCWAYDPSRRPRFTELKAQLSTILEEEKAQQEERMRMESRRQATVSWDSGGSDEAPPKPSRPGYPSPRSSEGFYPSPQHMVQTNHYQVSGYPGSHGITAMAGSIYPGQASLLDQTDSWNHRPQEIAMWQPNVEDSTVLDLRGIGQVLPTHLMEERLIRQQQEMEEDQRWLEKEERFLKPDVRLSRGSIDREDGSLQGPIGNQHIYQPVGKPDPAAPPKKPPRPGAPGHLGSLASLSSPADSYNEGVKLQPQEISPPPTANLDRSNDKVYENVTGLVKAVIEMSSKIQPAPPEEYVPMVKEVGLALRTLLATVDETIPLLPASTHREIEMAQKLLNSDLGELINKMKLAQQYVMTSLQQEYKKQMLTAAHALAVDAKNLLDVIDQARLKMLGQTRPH

Structure (SMILES) | DC50 [1, 3] | FAK HiBiT Ymin [1] | EC50 ([2]; Homo sapiens) | CAL-51 Prolif Ymin [2] | EC50 [1, 3] | EC50 [2]
O=C1CC[C@H](N2Cc3cc(Cn4ncc5c(-c6ncc(OC(F)F)cc6Cl)cc(N6CC(F)C6)nc54)ccc3C2=O)C(=O)N1 [Example 49, (3S)-3-[5-({4-[3-chloro-5-(difluoromethoxy)pyridin-2-yl]-6-(3-fluoroazetidin-1-yl)-1H-pyrazolo[3,4-b]pyridin-1-yl}methyl)-1-oxo-2,3-dihydro-1H-isoindol-2-yl]piperidine-2,6-dione] | 2 nM | 7.78 | 0.37 nM | 23.11 |  | 
Cc1cc(Cl)cnc1-c1cc(N2CC(F)C2)nc2c1cnn2Cc1ccc2c(c1)CN([C@H]1CCC(=O)NC1=O)C2=O [Example 50, (3S)-3-(5-{[4-(5-chloro-3-methylpyridin-2-yl)-6-(3-fluoroazetidin-1-yl)-1H-pyrazolo[3,4-b]pyridin-1-yl]methyl}-1-oxo-2,3-dihydro-1H-isoindol-2-yl)piperidine-2,6-dione] | 2.23 nM | 5.82 | 2.12 nM | 27.72 |  | 
O=C1CC[C@H](N2Cc3cc(Cn4ncc5c(-c6ncc(F)cc6Cl)cc(N6CC(F)C6)nc54)ccc3C2=O)C(=O)N1 [Example 51, (3S)-3-(5-{[4-(3-chloro-5-fluoropyridin-2-yl)-6-(3-fluoroazetidin-1-yl)-1H-pyrazolo[3,4-b]pyridin-1-yl]methyl}-1-oxo-2,3-dihydro-1H-isoindol-2-yl)piperidine-2,6-dione] | 2.23 nM | 10.32 | 1.49 nM | 30.14 |  | 
O=C1CC[C@H](N2Cc3cc(Cn4ncc5c(-c6ccc(OCC(F)(F)F)cc6Cl)cc(N6CC(F)C6)nc54)ccc3C2=O)C(=O)N1 [Example 52, (3S)-3-[5-({4-[2-chloro-4-(2,2,2-trifluoroethoxy)phenyl]-6-(3-fluoroazetidin-1-yl)-1H-pyrazolo[3,4-b]pyridin-1-yl}methyl)-1-oxo-2,3-dihydro-1H-isoindol-2-yl]piperidine-2,6-dione] | 2.4 nM | 8.38 | 1.13 nM | 22.49 |  | 
CN(c1cc(-c2ncc(F)cc2Cl)c2cnn(Cc3ccc4c(c3)CN(C3CCC(=O)NC3=O)C4=O)c2n1)C(F)(F)F (centres unmarked) [Example 53, 3-(5-{[4-(3-chloro-5-fluoropyridin-2-yl)-6-[methyl (trifluoromethyl)amino]-1H-pyrazolo[3,4-b]pyridin-1-yl]methyl}-1-oxo-2,3-dihydro-1H-isoindol-2-yl)piperidine-2,6-dione] | 2.45 nM | 7.24 | 9.88 nM | 39.88 |  | 
CC(C)Oc1cnc(-c2cc(N3CC(F)C3)nc3c2cnn3Cc2ccc3c(c2)CN([C@H]2CCC(=O)NC2=O)C3=O)c(Cl)c1 [Example 54, (3S)-3-[5-({4-[3-chloro-5-(propan-2-yloxy)pyridin-2-yl]-6-(3-fluoroazetidin-1-yl)-1H-pyrazolo[3,4-b]pyridin-1-yl}methyl)-1-oxo-2,3-dihydro-1H-isoindol-2-yl]piperidine-2,6-dione] | 2.47 nM | 6.69 | 0.73 nM | 25.81 |  | 
O=C1CCC(N2Cc3cc(Cn4ncc5c(-c6ncc(C(F)(F)F)cc6F)cc(N6CC(F)C6)nc54)ccc3C2=O)C(=O)N1 (centres unmarked) [Example 55, 3-[5-({4-[3-fluoro-5-(trifluoromethyl)pyridin-2-yl]-6-(3-fluoroazetidin-1-yl)-1H-pyrazolo[3,4-b]pyridin-1-yl}methyl)-1-oxo-2,3-dihydro-1H-isoindol-2-yl]piperidine-2,6-dione] | 3.13 nM | 20.64 | 3.19 nM | 36.41 |  | 
O=C1CCC(N2Cc3cc(Cn4ncc5c(-c6ncc(F)cc6Cl)cc(N6CC(F)C6)nc54)ccc3C2=O)C(=O)N1 (centres unmarked) [Example 56, 3-(5-{[4-(3-chloro-5-fluoropyridin-2-yl)-6-(3-fluoroazetidin-1-yl)-1H-pyrazolo[3,4-b]pyridin-1-yl]methyl}-1-oxo-2,3-dihydro-1H-isoindol-2-yl)piperidine-2,6-dione] | 3.72 nM | 10.37 | 1.67 nM | 26.66 |  | 
Cc1cnc(-c2cc(N3CC(F)C3)nc3c2cnn3Cc2ccc3c(c2)CN(C2CCC(=O)NC2=O)C3=O)c(Cl)c1 (centres unmarked) [Example 57, 3-(5-{[4-(3-chloro-5-methylpyridin-2-yl)-6-(3-fluoroazetidin-1-yl)-1H-pyrazolo[3,4-b]pyridin-1-yl]methyl}-1-oxo-2,3-dihydro-1H-isoindol-2-yl)piperidine-2,6-dione] | 3.41 nM | 8.26 | 1.51 nM | 25.51 |  | 
O=C1CCC(N2Cc3cc(Cn4ncc5c(-c6ncc(OCC(F)(F)F)cc6Cl)cc(N6CC(F)C6)nc54)ccc3C2=O)C(=O)N1 (centres unmarked) [Example 59, 3-[5-({4-[3-chloro-5-(2,2,2-trifluoroethoxy)pyridin-2-yl]-6-(3-fluoroazetidin-1-yl)-1H-pyrazolo[3,4-b]pyridin-1-yl}methyl)-1-oxo-2,3-dihydro-1H-isoindol-2-yl]piperidine-2,6-dione] | 3.54 nM | 10.50 | 0.87 nM | 28.60 |  | 
Cc1cc(C(F)(F)F)ccc1-c1cc(N2CC[C@H](O)C2)nc2c1cnn2Cc1ccc2c(c1)CN([C@H]1CCC(=O)NC1=O)C2=O [Example 63, (3S)-3-[5-({6-[(3S)-3-hydroxypyrrolidin-1-yl]-4-[2-methyl-4-(trifluoromethyl)phenyl]-1H-pyrazolo[3,4-b]pyridin-1-yl}methyl)-1-oxo-2,3-dihydro-1H-isoindol-2-yl]piperidine-2,6-dione] | 4.08 nM | 8.81 | 1.92 nM | 31.58 |  | 
CN(c1cc(-c2ncc(C(F)(F)F)cc2Cl)c2cnn(Cc3ccc4c(c3)CN([C@H]3CCC(=O)NC3=O)C4=O)c2n1)C1CC(O)C1 (stereo partly drawn) [Example 64, (3S)-3-[5-({4-[3-chloro-5-(trifluoromethyl)pyridin-2-yl]-6-{methyl[(1s,3s)-3-hydroxycyclobutyl]amino}-1H-pyrazolo[3,4-b]pyridin-1-yl}methyl)-1-oxo-2,3-dihydro-1H-isoindol-2-yl]piperidine-2,6-dione] |  | 9.77 |  | 32.02 | 4.29 nM | 2.32 nM
O=C1CCC(N2Cc3cc(Cn4ncc5c(-c6ncc(F)cc6F)cc(N6CC(F)C6)nc54)ccc3C2=O)C(=O)N1 (centres unmarked) [Example 65, 3-(5-{[4-(3,5-difluoropyridin-2-yl)-6-(3-fluoroazetidin-1-yl)-1H-pyrazolo[3,4-b]pyridin-1-yl]methyl}-1-oxo-2,3-dihydro-1H-isoindol-2-yl)piperidine-2,6-dione] | 4.47 nM | 17.03 | 1.89 nM | 36.07 |  | 
Cc1cc(OC(F)F)cnc1-c1cc(N2CC(F)C2)nc2c1cnn2Cc1ccc2c(c1)CN([C@H]1CCC(=O)NC1=O)C2=O [Example 66, (3S)-3-[5-({4-[5-(difluoromethoxy)-3-methylpyridin-2-yl]-6-(3-fluoroazetidin-1-yl)-1H-pyrazolo[3,4-b]pyridin-1-yl}methyl)-1-oxo-2,3-dihydro-1H-isoindol-2-yl]piperidine-2,6-dione] | 4.63 nM | 7.72 | 1.72 nM | 27.43 |  | 
CCOc1ccc(-c2c(F)c(N3CC[C@](C)(O)C3)nc3c2cnn3Cc2ccc3c(c2)CN([C@H]2CCC(=O)NC2=O)C3=O)c(Cl)c1 [Example 67, (3S)-3-(5-{[4-(2-chloro-4-ethoxyphenyl)-5-fluoro-6-[(3S)-3-hydroxy-3-methylpyrrolidin-1-yl]-1H-pyrazolo[3,4-b]pyridin-1-yl]methyl}-1-oxo-2,3-dihydro-1H-isoindol-2-yl)piperidine-2,6-dione] | 5.06 nM | 9.35 | 1.6 nM | 28.60 |  | 
COc1cnc(-c2cc(N3CC(F)C3)nc3c2cnn3Cc2ccc3c(c2)CN(C2CCC(=O)NC2=O)C3=O)c(Cl)c1 (centres unmarked) [Example 69, 3-(5-{[4-(3-chloro-5-methoxypyridin-2-yl)-6-(3-fluoroazetidin-1-yl)-1H-pyrazolo[3,4-b]pyridin-1-yl]methyl}-1-oxo-2,3-dihydro-1H-isoindol-2-yl)piperidine-2,6-dione] | 5.55 nM | 9.26 | 1.84 nM | 23.38 |  | 
O=C1CC[C@H](N2Cc3cc(Cn4ncc5c(-c6ncc(CF)cc6Cl)cc(N6CC(F)C6)nc54)ccc3C2=O)C(=O)N1 [Example 72, (3S)-3-[5-({4-[3-chloro-5-(fluoromethyl)pyridin-2-yl]-6-(3-fluoroazetidin-1-yl)-1H-pyrazolo[3,4-b]pyridin-1-yl}methyl)-1-oxo-2,3-dihydro-1H-isoindol-2-yl]piperidine-2,6-dione] | 6.35 nM | 7.12 | 1.78 nM | 23.41 |  | 
